Key:
[1] = system: pyramidal cells of the CA1 area of the hippocampus; assay: Histological score of brain damage after ischemia/reperfusion; type: in vivo, Mongolian gerbils; details: gerbils, oral HMWS 200, AcGS 132, AlcG 40, AldG 28, AcGL 200, ASA 60 mg/kg
Source text: For the evaluation of the neuroprotective effect of the mixture of high molecular weight substances, the object of the present invention, an experimental model of global cerebral ischemia by occlusion and reperfusion of the carotid arteries was used. The composition of High Molecular Weight Substances (HMWS) obtained in example 1 was subjected to a preclinical test with animals, in which its pharmacological effect was compared with the effects of pure extracts of Fatty Acids in the form of Salts (AcGS), fatty alcohols (AlcG) and high molecular weight aldehydes (AldG), which were administered in the dose equivalent to the proportion in which each one is present in 200 mg/kg of the HMWS Active Ingredient. Furthermore, the effect of HMWS was compared with the effect of pure free fatty acid (AcGL) extract administered at equal doses. Once the quarantine was over, the gerbils were distributed into 8 groups: a negative control that only received vehicle and cerebral ischemia (CI) was not induced and 7 groups with induced CI. […] All treatments were administered orally through intragastric intubation (0.5 mL/70 g body weight) 1 hour prior to induction of ischemia. […] Sections from each brain were evaluated by a light microscopy scoring system for determination of damage to the pyramidal cells of the CA1 area of the hippocampus with bilateral averages. […]

[2] = system: rabbits with spinal cord damage induced by Ischemia/Reperfusion (I/R); assay: Mortality in spinal cord ischemia/reperfusion; type: in vivo, New Zealand rabbits; details: oral for 10 days: HMWS 200, AcGS 132, AlcG 40, AldG 28, AcGL 200, ASA 2 mg/kg, positive control 80
Experimental: The neuroprotective effect of the HMWS mixture, object of the present invention, was also investigated using an experimental model of induction of ischemia in the spinal cord. The composition obtained in example 2 was subjected to a preclinical test in which its pharmacological effect was compared with the effects of pure extracts of Fatty Acids in the form of Salts (AcGS), fatty alcohols (AlcG) and high molecular weight aldehydes (AldG), which were administered at doses equivalent to that of those respective substances in 200 mg/kg of the HMWS Active Ingredient. Furthermore, the effect of HMWS was compared with that of pure extract of free fatty acids (AcGL) administered at equal doses.
Male New Zealand rabbits (1.8-2.2 kg) were used, which were adapted for 15 days to laboratory conditions (temperature of 20 to 25° C., relative humidity of 60±5%, light/dark cycles of 12 hours), with free access to water and food.
The substances HMWS, AcGS, AlcG, AldG, AcGL and aspirin were prepared as suspensions in an acacia/water vehicle (1%). […]
For the induction of ischemia in the spinal cord, the rabbits were anesthetized with thiopental (20 mg/kg i.v.). […] At 4 and 24 hours of reperfusion, the neurological deficit of the animals was blindly evaluated by 2 independent observers (according to Zivin et al., 1982). […]

Question: What does the source list for `CC(=O)Oc1ccccc1C(=O)O` [ASA, aspirin]?
Answer: Histologic Score (brain, CA1, scale 0-4) ([1]; 24 hours reperfusion, mean ± SEM, positive control 2.96 ± 0.07): 2.00 ± 0.15; Inhibition (%) of histological score of brain damage ([1]; I/R): 32.4%; Mortality 24 h (%) [2]: 40+ %
